Measurements taken from US20120251442A1, “Methods for Treatment of Tumors by Direct Administration of a Radioisotope” (GABRIEL INSTITUTE, INC., priority 2007, published 2012).

Assay: Radioisotope delivered into a drilled hole in the femur, tissue counting at two hours
Assay type: in vivo, Sprague Dawley rat
Experimental: A miniature drill was used to create a hole in the femur of an anesthetized Sprague Dawley rat. A miniature pump was used to deliver 3 μL of this Ho-166 composition into the hole created by the drill.
Two hours after the injection of the dose the rat was sacrificed and dissected. Tissues/organs excised and counted included bone (opposite femur), liver, kidneys, spleen, muscle, blood, heart, lung, pancreas as well as the injected femur. Counting was done by the use of a NaI gamma detector to determine the presence of radioactivity.
The amount of activity found in the site of injection was 92% of the injected dose. Less than 2% of the dose was found in the liver or in the rest of the bone. Total skeletal dose was determined by multiplying the % dose in the opposite femur by 25.
Ho-166 in 0.1M HCl was obtained from MURR. The pH was measured with pH paper showing a pH of about 1. The miniature drill described above in Example 6 was used to create a hole in the femur of an anesthetized Sprague Dawley rat. The miniature pump described above was used to deliver 3 μL of Ho-166 solution into the hole created by the drill. Two hours after the injection of the dose the rat was sacrificed and dissected. The amount of activity found in the site of injection was 5% of the injected dose. However 52% of the dose was found in the liver and 23% of the dose was found in the rest of the bone. Total skeletal dose was determined by multiplying the % dose in the opposite femur by 25.
The miniature drill described in Example 6 was used to create a hole in the femur of an anesthetized Sprague Dawley rat. The miniature pump described in Example 6 was used to deliver 2 μL of Sm-153-DOTMP solution into the hole created by the drill. Two hours after the injection of the dose the rat was sacrificed and dissected. The amount of activity found in the site of injection was 9% of the injected dose. None of the radioactivity was found in the liver and about 20% was found in the rest of the bone. Total skeletal dose was determined by multiplying the % dose in the opposite femur by 25. An average of 65% of the injected dose was found in the urine.

[1] = two hours after injection into femur hole

O=P([O-])(O)CN1CCN(CP(=O)([O-])O)CCN(CP(=O)(O)O)CCN(CP(=O)([O-])O)CC1.[153Sm+3] [Sm-153-DOTMP]
Activity found in the site of injection, % of the injected dose [1]: 9%
Dose found in the liver [1]: None
Injected dose found in the urine [1]: 65%
Dose found in the rest of the bone (two hours after injection, % dose in opposite femur multiplied by 25): about 20%
